Results taken from US20210317140A1, “Heterocyclic Compounds and Methods of Use” (MEDIVATION TECHNOLOGIES, INC, priority 2013, published 2021).

Columns and labels:
Format in all cases: biochemical
[1] = molecular target: T1, BTK (Homo sapiens, UniProt Q06187); experiment: BTK kinase assay (HotSpot, 33P ATP); conditions: for BTK @ 0.1 μM (% Inh): 0.1 μM compound; for BTK @ 0.1 μM (% Inh) / BTK @ 0.01 μM (% Inh) / BTK @ 1 μM (% Inh): 10 μM ATP; for BTK @ 0.01 μM (% Inh): 0.01 μM compound; for IC50: 10 dose IC50, 10 μM ATP; for BTK @ 1 μM (% Inh): 1 μM compound
T1 construct: purchased Reaction Biology Corporation
How it was run: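 In 20 mM Hepes (pH 7.5) with 10 mM MgCl2, 1 mM EGTA, 0.1 mM Na3VO4, 2 mM DTT, 0.02% Brij35, 0.02 mg/mL BSA and 1% DMSO, kinase and substrate were exposed to ten compound doses for 15–20 min.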

[2] = molecular target: T2, TEC (Homo sapiens, UniProt P42680); experiment: TEC kinase profiling (BTK protocol); conditions: for TEC @ 0.3 μM (% Inh): 0.3 μM compound
T2 construct: purchased Reaction Biology Corporation
T2 sequence (P42680 1-631): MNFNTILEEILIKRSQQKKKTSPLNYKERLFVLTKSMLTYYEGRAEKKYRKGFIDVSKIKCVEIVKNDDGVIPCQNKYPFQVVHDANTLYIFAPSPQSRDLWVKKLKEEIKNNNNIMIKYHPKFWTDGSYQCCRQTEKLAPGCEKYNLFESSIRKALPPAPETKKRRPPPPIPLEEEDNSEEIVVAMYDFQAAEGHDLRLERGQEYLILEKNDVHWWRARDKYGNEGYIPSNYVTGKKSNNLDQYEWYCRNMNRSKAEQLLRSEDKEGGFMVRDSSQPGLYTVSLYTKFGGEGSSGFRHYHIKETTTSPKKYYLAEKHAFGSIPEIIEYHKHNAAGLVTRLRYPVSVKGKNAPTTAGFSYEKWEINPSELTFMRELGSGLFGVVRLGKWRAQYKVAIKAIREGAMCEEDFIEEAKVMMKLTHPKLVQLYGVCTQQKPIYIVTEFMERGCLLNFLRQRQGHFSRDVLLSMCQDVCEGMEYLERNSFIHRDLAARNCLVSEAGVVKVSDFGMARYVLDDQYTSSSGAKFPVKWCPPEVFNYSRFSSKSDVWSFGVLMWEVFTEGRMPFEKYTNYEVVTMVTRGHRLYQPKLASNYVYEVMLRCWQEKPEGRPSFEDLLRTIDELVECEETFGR
Procedure: BTK assay: In vitro profiling protein kinases was performed using the “HotSpot” assay platform. Briefly, specific kinase/substrate pairs along with required cofactors were prepared in reaction buffer. Compounds were prepared as 10 mM stock solutions in DMSO. Compounds were delivered into the reaction, followed 15-20 minutes later by addition of a mixture of ATP (Sigma, St. Louis Mo.) and ^33P ATP (Perkin Elmer, Waltham Mass.) to a final concentration of 10 μM. […] IC50 values and curve fits were obtained using Prism (GraphPad Software). Buffer Conditions: 20 mM Hepes (pH 7.5), 10 mM MgCl2, 1 mM EGTA, 0.02% Brij35, 0.02 mg/mL BSA, 0.1 mM Na3VO4, 2 mM DTT, 1% DMSO.

[3] = molecular target: T3, PI3Kγ (Homo sapiens, UniProt P48736); experiment: PI3Kγ isoform profiling (PI3Kδ protocol); conditions: 0.3 μM compound
T3 construct: purchased Reaction Biology Corporation
Excerpt: (§1) PI3Kδ assay: The PIP3 product is detected by displacement of biotin-PIP3 from an energy transfer complex consisting of Europium labeled anti-GST monoclonal antibody, a GST-tagged pleckstrin homology (PH) domain, biotinylated PIP3 and Streptavidin-Allophycocyanin (APC). Excitation of Europium in the complex results in an energy transfer to the APC and a fluorescent emission at 665 nm. The PIP3 product formed by PI 3-Kinase(h) activity displaces biotin-PIP3 from the complex resulting in a loss of energy transfer and thus a decrease in signal. This is a 3-step reaction: First, the kinase reaction with PIP2 substrate is carried out in the presence of ATP (10 μM), and the reaction is quenched with stop Solution, and then finally detect by adding Detection Mixture followed by incubation (10 min). Reaction procedure: 1) Prepare substrate in freshly prepared Reaction Buffer. 2) Deliver kinase into the substrate solution and gently mix. 3) Deliver compounds in 100% DMSO (1 μM) into the kinase reaction mixture by Acoustic technology (Echo550; nanoliter range), incubate for 10 min at RT. 4) Deliver ATP into the reaction mixture to initiate the reaction. 5) Incubate for 30 min at 30° C. 6) Quench the reaction with Stop Solution. 7) Add Detection Mixture, and incubate for overnight. 8) Measure HTRF: Ex=320 nm, ratio of Em=615 nm and Em=665 nm. The emission ratio is converted into μM PIP3 production based on PIP3 standard curves. The nonlinear regression to obtain the standard curve and IC50 values are performed using Graphpad Prism software. Assay Buffer: HEPES 50 mM (pH7.0), NaN3 0.02%, BSA 0.01%, Orthovanadate 0.1 mM, 1% DMSO. Detection buffer: HEPES 10 mM (pH7.0), BSA 0.02%, KF 0.16 M, EDTA 4 mM. Substrate: 10 μM PIP2 substrate (PI(4,5)P2).
(§2) Compounds of the invention were profiled in a 10 dose IC50 panel against PI3Kα, PI3Kβ, and PI3Kγ kinases, provided by Reaction Biology Corporation, applied to the PI3Kδ protocol provided in Example B1.

[4] = molecular target: T4, PI3Kδ (Homo sapiens, UniProt O00329); experiment: PI3Kδ kinase assay (HTRF, PIP3 detection); conditions: for PI3Kδ @ 0.01 μM (% Inh): 0.01 μM compound; for PI3Kδ @ 0.01 μM (% Inh) / PI3Kδ @ 0.1 μM (% Inh) / PI3Kδ @ 1 μM (% Inh): 10 μM ATP; for PI3Kδ @ 0.1 μM (% Inh): 0.1 μM compound; for IC50: 10 dose IC50, 10 μM ATP; for PI3Kδ @ 1 μM (% Inh): 1 μM compound
T4 construct: purchased Reaction Biology Corporation
How it was run: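 PIP3 formation read by loss of energy transfer as it displaces biotin-PIP3 from a Eu anti-GST/GST-PH/streptavidin-APC complex, calibrated against PIP3 standards.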

[5] = molecular target: T5, PI3Kβ (Homo sapiens, UniProt P42338); experiment: PI3Kβ isoform profiling (PI3Kδ protocol); conditions: 0.3 μM compound
T5 construct: purchased Reaction Biology Corporation
Excerpt: as §1, §2

T3 sequence (P48736 whole entry, canonical isoform): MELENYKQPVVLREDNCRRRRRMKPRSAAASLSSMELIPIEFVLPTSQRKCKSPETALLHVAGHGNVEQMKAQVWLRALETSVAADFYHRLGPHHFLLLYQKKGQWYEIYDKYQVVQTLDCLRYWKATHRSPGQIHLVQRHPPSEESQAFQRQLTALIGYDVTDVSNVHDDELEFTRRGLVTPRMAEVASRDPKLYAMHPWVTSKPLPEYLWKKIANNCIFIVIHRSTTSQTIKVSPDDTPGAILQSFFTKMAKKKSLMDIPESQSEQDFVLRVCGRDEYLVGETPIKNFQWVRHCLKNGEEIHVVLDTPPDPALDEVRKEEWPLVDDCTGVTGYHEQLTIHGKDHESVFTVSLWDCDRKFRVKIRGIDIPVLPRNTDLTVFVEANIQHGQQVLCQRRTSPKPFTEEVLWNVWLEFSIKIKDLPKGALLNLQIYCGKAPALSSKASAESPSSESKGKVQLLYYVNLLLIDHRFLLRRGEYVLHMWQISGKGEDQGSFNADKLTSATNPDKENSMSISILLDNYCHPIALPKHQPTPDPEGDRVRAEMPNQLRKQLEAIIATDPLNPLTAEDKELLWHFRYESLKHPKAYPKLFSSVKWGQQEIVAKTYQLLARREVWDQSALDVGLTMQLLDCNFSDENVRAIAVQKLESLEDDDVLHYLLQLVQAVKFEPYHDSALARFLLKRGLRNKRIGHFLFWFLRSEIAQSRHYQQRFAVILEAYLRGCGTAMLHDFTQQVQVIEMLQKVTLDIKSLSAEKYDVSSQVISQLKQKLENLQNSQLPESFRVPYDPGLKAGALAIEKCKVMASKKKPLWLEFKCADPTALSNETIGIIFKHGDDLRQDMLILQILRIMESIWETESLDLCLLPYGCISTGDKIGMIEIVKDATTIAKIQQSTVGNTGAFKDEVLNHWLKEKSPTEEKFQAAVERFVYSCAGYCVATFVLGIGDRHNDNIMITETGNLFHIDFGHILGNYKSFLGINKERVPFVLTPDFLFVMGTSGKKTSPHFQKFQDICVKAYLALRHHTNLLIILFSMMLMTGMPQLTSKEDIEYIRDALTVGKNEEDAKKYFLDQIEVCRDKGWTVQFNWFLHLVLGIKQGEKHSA
T4 sequence (O00329 whole entry): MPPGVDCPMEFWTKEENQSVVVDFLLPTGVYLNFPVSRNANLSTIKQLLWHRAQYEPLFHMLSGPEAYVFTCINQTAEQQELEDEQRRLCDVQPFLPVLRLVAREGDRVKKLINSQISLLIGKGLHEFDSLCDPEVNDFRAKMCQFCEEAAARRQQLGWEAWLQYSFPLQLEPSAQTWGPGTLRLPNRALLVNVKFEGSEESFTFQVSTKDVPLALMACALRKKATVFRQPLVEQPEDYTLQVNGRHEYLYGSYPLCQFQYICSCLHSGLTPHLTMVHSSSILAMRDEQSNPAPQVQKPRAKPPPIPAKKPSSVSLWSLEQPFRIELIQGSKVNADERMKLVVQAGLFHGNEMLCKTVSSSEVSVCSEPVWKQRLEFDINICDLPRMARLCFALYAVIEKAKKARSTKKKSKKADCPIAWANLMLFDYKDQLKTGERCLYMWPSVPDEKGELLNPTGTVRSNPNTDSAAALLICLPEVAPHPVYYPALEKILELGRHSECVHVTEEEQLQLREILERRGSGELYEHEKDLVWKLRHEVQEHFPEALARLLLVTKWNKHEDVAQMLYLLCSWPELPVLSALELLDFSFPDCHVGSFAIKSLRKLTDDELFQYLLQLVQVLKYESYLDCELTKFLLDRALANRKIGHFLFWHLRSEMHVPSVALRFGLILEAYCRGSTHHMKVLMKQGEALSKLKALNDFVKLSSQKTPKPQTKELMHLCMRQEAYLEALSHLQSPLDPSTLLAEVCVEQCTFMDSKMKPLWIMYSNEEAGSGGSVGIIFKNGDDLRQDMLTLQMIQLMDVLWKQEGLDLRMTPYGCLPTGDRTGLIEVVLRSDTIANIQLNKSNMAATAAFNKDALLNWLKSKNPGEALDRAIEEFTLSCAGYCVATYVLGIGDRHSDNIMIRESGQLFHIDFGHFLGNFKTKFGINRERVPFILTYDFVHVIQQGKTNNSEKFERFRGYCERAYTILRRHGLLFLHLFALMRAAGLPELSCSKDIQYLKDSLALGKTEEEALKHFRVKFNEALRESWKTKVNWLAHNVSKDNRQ
T4 sequence (P27986 whole entry partner): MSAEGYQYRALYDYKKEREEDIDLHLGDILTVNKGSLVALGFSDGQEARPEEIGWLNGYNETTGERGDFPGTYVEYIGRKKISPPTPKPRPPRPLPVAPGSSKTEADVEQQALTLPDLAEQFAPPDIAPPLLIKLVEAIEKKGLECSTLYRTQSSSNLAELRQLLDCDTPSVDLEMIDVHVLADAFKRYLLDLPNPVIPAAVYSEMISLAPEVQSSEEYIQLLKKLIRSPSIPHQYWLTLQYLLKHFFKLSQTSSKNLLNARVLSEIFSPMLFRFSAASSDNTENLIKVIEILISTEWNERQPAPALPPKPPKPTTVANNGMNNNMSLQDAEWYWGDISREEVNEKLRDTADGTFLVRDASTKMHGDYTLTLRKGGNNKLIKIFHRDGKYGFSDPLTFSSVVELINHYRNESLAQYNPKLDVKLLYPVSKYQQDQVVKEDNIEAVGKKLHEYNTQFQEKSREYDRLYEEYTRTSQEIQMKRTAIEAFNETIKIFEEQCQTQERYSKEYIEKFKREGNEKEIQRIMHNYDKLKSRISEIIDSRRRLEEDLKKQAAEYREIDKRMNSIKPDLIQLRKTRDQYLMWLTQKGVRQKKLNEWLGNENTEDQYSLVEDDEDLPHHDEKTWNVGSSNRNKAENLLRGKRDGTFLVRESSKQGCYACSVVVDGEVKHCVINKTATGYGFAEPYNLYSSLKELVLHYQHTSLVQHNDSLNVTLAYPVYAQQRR
T1 sequence (Q06187 whole entry): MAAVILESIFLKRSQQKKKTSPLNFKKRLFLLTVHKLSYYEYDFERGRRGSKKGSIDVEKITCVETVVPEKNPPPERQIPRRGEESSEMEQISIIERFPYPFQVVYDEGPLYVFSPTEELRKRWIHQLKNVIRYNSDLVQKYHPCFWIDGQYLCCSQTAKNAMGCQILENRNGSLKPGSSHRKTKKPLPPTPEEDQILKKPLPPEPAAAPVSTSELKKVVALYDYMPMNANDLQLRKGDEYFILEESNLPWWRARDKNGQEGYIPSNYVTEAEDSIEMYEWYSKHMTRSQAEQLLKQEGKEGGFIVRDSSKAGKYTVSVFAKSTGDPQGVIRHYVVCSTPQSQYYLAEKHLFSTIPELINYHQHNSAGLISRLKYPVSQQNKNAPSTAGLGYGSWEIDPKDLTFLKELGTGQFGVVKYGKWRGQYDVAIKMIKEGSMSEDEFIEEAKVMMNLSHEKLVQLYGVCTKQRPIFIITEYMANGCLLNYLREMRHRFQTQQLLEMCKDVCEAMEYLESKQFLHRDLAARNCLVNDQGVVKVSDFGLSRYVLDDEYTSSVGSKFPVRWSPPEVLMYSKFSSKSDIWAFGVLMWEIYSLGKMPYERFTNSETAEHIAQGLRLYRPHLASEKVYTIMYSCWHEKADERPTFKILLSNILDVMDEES
T5 sequence (P42338 whole entry, canonical isoform): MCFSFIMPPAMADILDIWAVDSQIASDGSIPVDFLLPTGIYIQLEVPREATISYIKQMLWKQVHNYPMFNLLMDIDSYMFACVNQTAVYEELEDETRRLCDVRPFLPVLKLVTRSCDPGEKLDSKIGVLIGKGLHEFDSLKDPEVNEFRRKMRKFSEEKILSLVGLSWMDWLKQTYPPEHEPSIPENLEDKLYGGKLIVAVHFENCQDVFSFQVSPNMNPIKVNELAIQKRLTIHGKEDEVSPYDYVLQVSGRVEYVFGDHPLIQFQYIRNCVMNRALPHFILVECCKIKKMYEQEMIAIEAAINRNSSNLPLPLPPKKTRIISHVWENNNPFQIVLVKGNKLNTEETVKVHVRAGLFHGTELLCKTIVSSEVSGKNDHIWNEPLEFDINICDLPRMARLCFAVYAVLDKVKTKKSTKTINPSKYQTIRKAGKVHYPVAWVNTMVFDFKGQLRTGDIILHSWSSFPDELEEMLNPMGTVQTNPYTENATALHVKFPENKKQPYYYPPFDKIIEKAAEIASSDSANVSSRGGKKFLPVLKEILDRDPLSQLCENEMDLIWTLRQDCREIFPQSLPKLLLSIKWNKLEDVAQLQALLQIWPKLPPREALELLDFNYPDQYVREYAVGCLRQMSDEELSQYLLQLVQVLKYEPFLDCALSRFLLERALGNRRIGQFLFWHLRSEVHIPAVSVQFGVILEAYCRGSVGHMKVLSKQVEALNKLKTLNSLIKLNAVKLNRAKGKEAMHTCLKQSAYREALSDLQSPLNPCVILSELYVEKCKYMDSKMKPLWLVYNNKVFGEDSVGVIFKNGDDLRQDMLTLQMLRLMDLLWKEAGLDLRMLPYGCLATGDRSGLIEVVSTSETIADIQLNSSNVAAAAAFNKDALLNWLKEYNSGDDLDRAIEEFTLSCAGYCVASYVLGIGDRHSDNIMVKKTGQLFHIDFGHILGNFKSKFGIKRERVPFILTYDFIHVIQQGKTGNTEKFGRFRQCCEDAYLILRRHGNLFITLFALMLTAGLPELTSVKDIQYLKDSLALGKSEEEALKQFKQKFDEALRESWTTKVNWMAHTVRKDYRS
T5 sequence (P27986 whole entry partner, canonical isoform): as the sequence (P27986 whole entry partner) above

BTK @ 0.1 μM (% Inh) [1] [% Inh]	BTK @ 0.01 μM (% Inh) [1] [% Inh]	IC50 [1] [nM]	PI3Kγ @ 0.3 μM (% Inh) [3] [% Inh]	TEC @ 0.3 μM (% Inh) [2] [% Inh]	PI3Kδ @ 0.01 μM (% Inh) [4] [% Inh]	PI3Kδ @ 0.1 μM (% Inh) [4] [% Inh]	IC50 [4] [nM]	PI3Kβ @ 0.3 μM (% Inh) [5] [% Inh]	BTK @ 1 μM (% Inh) [1] [% Inh]	PI3Kδ @ 1 μM (% Inh) [4] [% Inh]	PI3Kγ @ 0.3 μM (% Inh) ([3]; 0.3 µM)	TEC @ 0.3 μM (% Inh) ([2]; 0.3 µM)	PI3Kβ @ 0.3 μM (% Inh) ([5]; 0.3 µM)	Structure (SMILES)	IC50 ([2]; 10 dose IC50) [nM]
91.79	55.15	2.5	47.05	89.37	40.85	76.2	11.9	50.12	–	–	–	–	–	Nc1ncnc2c1c(-c1cc(O)c(F)c(Cl)c1)cn2C1Cc2ccccc2C1 [compound 110, 5-[4-amino-7-(2,3-dihydro-1H-inden-2-yl)-7H-pyrrolo[2,3-d]pyrimidin-5-yl]-3-chloro-2-fluorophenol]	–
38.26	–	258	19.7	10.01	–	18.95	108	34.21	–	–	–	–	–	Nc1ncnc2c1c(-c1ccc3cc[nH]c3c1)nn2C1CCc2ccccc2C1 (racemic) [compound 18, 3-(1H-indol-6-yl)-1-(1,2,3,4-tetrahydronaphthalen-2-yl)-1H-pyrazolo[3,4-d]pyrimidin-4-amine]	–
–	–	8.7	45.49	87.72	–	–	12.9	49.12	–	–	–	–	–	Nc1ncnc2c1c(-c1cc(O)c(Cl)c(Cl)c1)cn2C1Cc2ccccc2C1 [Compound No. 107, 5-[4-amino-7-(2,3-dihydro-1H-inden-2-yl)-7H-pyrrolo[2,3-d]pyrimidin-5-yl]-2,3-dichlorophenol]	–
–	–	10.6	38.75	66.1	–	–	66.1	37.87	–	–	–	–	–	Nc1ncnc2c1c(-c1ccc(F)c(O)c1)nn2C1CCc2ccccc2C1 (racemic) [Compound No. 26, 5-(4-amino-1-(1,2,3,4-tetrahydronaphthalen-2-yl)-1H-pyrazolo[3,4-d]pyrimidin-3-yl)-2-fluorophenol]	–
93.12	64.36	12.1	14.76	56.91	44.15	78.27	10.6	32.34	–	–	–	–	–	C=CC(=O)N1CC(n2nc(-c3cc(O)cc(F)c3)c3c(N)ncnc32)Cc2cc(C)ccc21 (single isomer, unassigned) [31b, 1-(3-(4-amino-3-(3-fluoro-5-hydroxyphenyl)-1H-pyrazolo[3,4-d]pyrimidin-1-yl)-6-methyl-3,4-dihydroquinolin-1(2H)-yl)prop-2-en-1-one]	–
94.7	78.34	2.47	57.6	91.2	26.61	62.53	62.1	41.93	–	–	–	–	–	Nc1ncnc2c1c(-c1cc(O)c(F)c(F)c1)cn2C1Cc2ccccc2C1 [Compound No. 101, 5-[4-amino-7-(2,3-dihydro-1H-inden-2-yl)-7H-pyrrolo[2,3-d]pyrimidin-5-yl]-2,3-difluorophenol]	–
51.83	–	104	55.61	23.9	–	53.06	34.8	27.83	90.69	88.36	–	–	–	Nc1ncnc2c1c(-c1cc(F)c3c(c1)NCCO3)nn2C1Cc2ccccc2C1 [Compound No. 84, 1-(2,3-dihydro-1H-inden-2-yl)-3-(8-fluoro-3,4-dihydro-2H-1,4-benzoxazin-6-yl)-1H-pyrazolo[3,4-d]pyrimidin-4-amine]	–
50.43	12.09	80.1	59.21	48.29	82.64	93.12	1.9	68.12	–	–	–	–	–	N#Cc1cc(-c2cn(C3Cc4ccccc4C3)c3ncnc(N)c23)cc(O)c1F [compound 115, 5-[4-amino-7-(2,3-dihydro-1H-inden-2-yl)-7H-pyrrolo[2,3-d]pyrimidin-5-yl]-2-fluoro-3-hydroxybenzonitrile]	–
52.22	17.5	78	57.52	102.76	29.01	71.71	44.7	39.8	–	–	–	–	–	Nc1ncnc2c1c(-c1ccc(Cl)c(O)c1F)nn2C1Cc2ccccc2C1 [Compound No. 100, 3-[4-amino-1-(2,3-dihydro-1H-inden-2-yl)-1H-pyrazolo[3,4-d]pyrimidin-3-yl]-6-chloro-2-fluorophenol]	–
73.83	–	26.9	68.03	71.22	–	87.14	3.5	73.05	94.81	91.62	–	–	–	Nc1ncnc2c1c(-c1cc(O)c(F)c(F)c1)nn2C1Cc2ccccc2C1 [Compound No. 81, 5-[4-amino-1-(2,3-dihydro-1H-inden-2-yl)-1H-pyrazolo[3,4-d]pyrimidin-3-yl]-2,3-difluorophenol]	–
45.78	–	112	–	–	–	79.6	7.7	–	–	–	45.57	27.3	69.23	Nc1ncnc2c1c(-c1cc(O)cc(F)c1)nn2C1CCc2ccccc2C1 (single isomer, unassigned) [6b, 3-(4-amino-1-(1,2,3,4-tetrahydronaphthalen-2-yl)-1H-pyrazolo[3,4-d]pyrimidin-3-yl)-5-fluorophenol]	–

Structure (SMILES)	BTK @ 0.1 μM (% Inh) [1] [% Inh]	BTK @ 0.01 μM (% Inh) [1] [% Inh]	IC50 [1] [nM]	PI3Kγ @ 0.3 μM (% Inh) [3] [% Inh]	TEC @ 0.3 μM (% Inh) [2] [% Inh]	PI3Kδ @ 0.01 μM (% Inh) [4] [% Inh]	PI3Kδ @ 0.1 μM (% Inh) [4] [% Inh]	IC50 [4] [nM]	PI3Kβ @ 0.3 μM (% Inh) [5] [% Inh]	BTK @ 1 μM (% Inh) [1] [% Inh]	PI3Kδ @ 1 μM (% Inh) [4] [% Inh]	PI3Kγ @ 0.3 μM (% Inh) ([3]; 0.3 µM)	TEC @ 0.3 μM (% Inh) ([2]; 0.3 µM)	PI3Kβ @ 0.3 μM (% Inh) ([5]; 0.3 µM)	IC50 ([2]; 10 dose IC50) [nM]
Nc1ncnc2c1c(-c1ccc(Br)c(O)c1)nn2C1Cc2ccccc2C1 [compound 2, 5-(4-amino-1-(2,3-dihydro-1H-inden-2-yl)-1H-pyrazolo[3,4-d]pyrimidin-3-yl)-2-bromophenol]	78.45	–	–	–	–	–	–	–	–	–	–	–	–	–	100
